ChEMBL document CHEMBL1149975, “Synthesis of C2-symmetrical polyhydroxyazepanes as inhibitors of glycosidases” (Bioorg Med Chem Lett, 1996)

Assays:
Canavalia ensiformis [1] = assay: Compound was tested for % inhibition of beta-N-acetylglucosaminidase from jack beans.; conditions: concentration not given here
Canavalia ensiformis [2] = assay: Compound was tested for % inhibition of alpha-mannosidase from jack beans.; conditions: concentration not given here
Beta-galactosidase [3] = target: T1, Beta-galactosidase (Aspergillus niger, UniProt P29853); assay: Compound was tested for inhibition of beta-galactosidase from aspergillus niger; NI means no inhibition.
T1 sequence (P29853 whole entry): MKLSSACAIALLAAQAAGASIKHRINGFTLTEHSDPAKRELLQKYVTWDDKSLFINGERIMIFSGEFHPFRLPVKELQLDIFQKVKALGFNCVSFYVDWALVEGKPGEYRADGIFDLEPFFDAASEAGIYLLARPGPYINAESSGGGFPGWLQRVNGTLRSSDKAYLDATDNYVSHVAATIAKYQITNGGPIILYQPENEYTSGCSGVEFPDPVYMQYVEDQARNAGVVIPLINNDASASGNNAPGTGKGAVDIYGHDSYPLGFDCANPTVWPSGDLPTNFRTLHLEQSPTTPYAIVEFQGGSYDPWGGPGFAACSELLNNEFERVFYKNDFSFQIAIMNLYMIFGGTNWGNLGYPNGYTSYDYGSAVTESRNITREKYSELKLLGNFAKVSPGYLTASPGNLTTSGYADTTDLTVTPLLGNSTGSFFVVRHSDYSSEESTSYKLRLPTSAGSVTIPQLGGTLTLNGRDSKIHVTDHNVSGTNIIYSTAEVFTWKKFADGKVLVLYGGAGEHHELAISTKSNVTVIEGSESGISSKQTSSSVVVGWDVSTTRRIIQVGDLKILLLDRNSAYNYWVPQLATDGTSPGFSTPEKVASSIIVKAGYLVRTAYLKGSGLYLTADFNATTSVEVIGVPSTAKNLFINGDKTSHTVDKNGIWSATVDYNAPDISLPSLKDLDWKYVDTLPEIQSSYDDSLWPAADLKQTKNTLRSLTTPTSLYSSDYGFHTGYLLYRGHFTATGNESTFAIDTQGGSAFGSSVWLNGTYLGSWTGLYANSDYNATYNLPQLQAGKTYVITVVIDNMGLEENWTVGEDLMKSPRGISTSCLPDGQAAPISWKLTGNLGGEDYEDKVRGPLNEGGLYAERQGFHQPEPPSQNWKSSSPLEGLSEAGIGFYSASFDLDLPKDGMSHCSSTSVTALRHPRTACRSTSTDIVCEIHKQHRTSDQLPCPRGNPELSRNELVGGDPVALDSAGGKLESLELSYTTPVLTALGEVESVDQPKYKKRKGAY

[4] = test system: beta-glucosidase (Prunus dulcis); assay: Compound was tested for % inhibition of beta-glucosidase from sweet almonds.; conditions: concentration not given here
[5] = test system: alpha-galactosidase (Coffea arabica); assay: Compound was tested for inhibition of alpha-galactosidase from green coffee beans; NI means no inhibition.
[6] = test system: Alpha-glucosidase (Saccharomyces cerevisiae); assay: Compound was tested for % inhibition of alpha-glucosidase from yeast.; conditions: concentration not given here
[7] = Compound was tested for inhibition of beta-N-acetylglucosaminidase from jack beans.; set-up: species or system Canavalia ensiformis
[8] = Compound was tested for inhibition of alpha-mannosidase from jack beans; NI means no inhibition.; set-up: species or system Canavalia ensiformis
[9] = Compound was tested for inhibition of alpha-mannosidase from jack beans.; set-up: species or system Canavalia ensiformis
Beta-galactosidase [10] = target: T1, Beta-galactosidase; assay: Compound was tested for inhibition of beta-galactosidase from aspergillus niger.

| inhibition (Canavalia ensiformis [1]) | inhibition (Canavalia ensiformis [2]) | Ki (Beta-galactosidase [3]) | inhibition [4] | Ki [5] | inhibition [6] | Ki [7] | Ki [8] | Ki [9] | Ki (Beta-galactosidase [10]) | Structure (SMILES) |
| --- | --- | --- | --- | --- | --- | --- | --- | --- | --- | --- |
| 6% | 11% | No inhibition | 14% | No inhibition | 6% | – | – | – | – | O[C@H]1[C@H](O)[C@H](O)CN(Cc2ccccc2)C[C@H]1O |
| – | – | No inhibition | – | – | – | 4.6 µM | No inhibition | – | – | O[C@H]1[C@H](O)[C@H](O)CNC[C@H]1O |
| – | – | – | – | – | – | 22.7 µM | – | 25.7 µM | 6.5 µM | O[C@H]1[C@H](O)[C@@H](O)CNC[C@@H]1O |
